Test results: ChEMBL document CHEMBL4808230, “Neuroprotective effects of 2-heptyl-3-hydroxy-4-quinolone in HT22 mouse hippocampal neuronal cells” (2021)
Activity calls are given as the source filed them. The rule behind the calls is not given here.

Columns and labels:
HT-22 [1] = assay: Inhibition of glutamate-induced ERK activation in mouse HT-22 cells assessed as reduction in phosphorylated ERK protein level at 1 to 10 uM in presence of glutamate by Western blot analysis; format: cell-based; conditions: dose 1-10 µM
HT-22 [2] = assay: Inhibition of glutamate-induced apoptosis in mouse HT-22 cells assessed as viable cells at 0.2 uM pretreated with glutamate for 2 hrs followed by incubation with compound for 8 hrs by Annexin-V FITC and propidium iodide staining based flow cytometric analysis (reference value: 21.39%); format: functional; conditions: read-out: Activity
[3] = biological target: c-Jun N-terminal kinase (Mus musculus) (UniProt Q91Y86+Q9WTU6+Q61831); assay: Inhibition of glutamate-induced JNK activation in mouse HT-22 cells assessed as reduction in phosphorylated JNK protein level at 1 to 10 uM in presence of glutamate by Western blot analysis; format: cell-based; conditions: dose 1-10 µM
Sequence of c-Jun N-terminal kinase (Mus musculus) (Q61831 whole entry, looked up): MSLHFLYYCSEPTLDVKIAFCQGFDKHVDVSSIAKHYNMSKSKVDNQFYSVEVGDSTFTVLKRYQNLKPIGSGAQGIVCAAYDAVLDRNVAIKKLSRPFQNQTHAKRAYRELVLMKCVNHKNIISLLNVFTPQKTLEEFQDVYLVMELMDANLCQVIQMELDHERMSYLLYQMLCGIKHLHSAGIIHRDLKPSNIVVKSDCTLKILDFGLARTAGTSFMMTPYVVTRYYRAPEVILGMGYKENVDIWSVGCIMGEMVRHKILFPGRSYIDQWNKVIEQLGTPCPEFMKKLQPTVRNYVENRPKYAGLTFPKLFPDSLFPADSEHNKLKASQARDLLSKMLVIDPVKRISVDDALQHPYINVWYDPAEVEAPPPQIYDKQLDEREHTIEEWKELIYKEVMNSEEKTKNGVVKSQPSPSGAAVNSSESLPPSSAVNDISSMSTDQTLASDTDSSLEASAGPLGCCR
Sequence of c-Jun N-terminal kinase (Mus musculus) (Q91Y86 whole entry, looked up): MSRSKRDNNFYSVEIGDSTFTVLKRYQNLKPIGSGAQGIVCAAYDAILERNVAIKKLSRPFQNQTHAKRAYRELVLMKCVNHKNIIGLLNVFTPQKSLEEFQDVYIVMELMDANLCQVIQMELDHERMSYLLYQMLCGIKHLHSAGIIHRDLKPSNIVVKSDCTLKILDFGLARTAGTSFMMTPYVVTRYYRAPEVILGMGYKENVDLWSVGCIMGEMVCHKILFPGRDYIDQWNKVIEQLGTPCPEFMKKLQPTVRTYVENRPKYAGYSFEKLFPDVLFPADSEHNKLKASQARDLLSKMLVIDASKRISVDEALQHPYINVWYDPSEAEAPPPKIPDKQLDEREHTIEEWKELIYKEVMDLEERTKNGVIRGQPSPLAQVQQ
Sequence of c-Jun N-terminal kinase (Mus musculus) (Q9WTU6 whole entry, looked up): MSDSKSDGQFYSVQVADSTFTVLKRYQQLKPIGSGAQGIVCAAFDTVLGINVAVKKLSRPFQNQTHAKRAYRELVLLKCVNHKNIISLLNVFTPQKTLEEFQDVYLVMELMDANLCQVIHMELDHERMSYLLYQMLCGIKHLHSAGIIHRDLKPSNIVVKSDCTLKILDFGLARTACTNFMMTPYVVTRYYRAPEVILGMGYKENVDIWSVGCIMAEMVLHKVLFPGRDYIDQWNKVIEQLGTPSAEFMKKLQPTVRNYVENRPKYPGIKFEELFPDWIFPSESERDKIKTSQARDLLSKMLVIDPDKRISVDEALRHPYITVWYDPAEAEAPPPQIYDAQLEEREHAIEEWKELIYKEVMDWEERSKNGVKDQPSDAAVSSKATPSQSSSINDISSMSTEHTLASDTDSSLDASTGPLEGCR

HT-22 [4] = assay: Inhibition of glutamate-induced apoptosis in mouse HT-22 cells assessed as necrotic cells at 0.2 uM pretreated with glutamate for 2 hrs followed by incubation with compound for 8 hrs by Annexin-V FITC and propidium iodide staining based flow cytometric analysis (reference value: 0.79%); format: functional; parameters: scale not given: the % may be the effect or the level left
HT-22 [5] = assay: Neuroprotective activity against glutamate-induced cytotoxicity in mouse HT-22 cells assessed as reduction in cell death pretreated with glutamate followed by incubation with compound for 6 hrs and measured at 16 hrs post-glutamate treatment; format: functional, cell-based
HT-22 [6] = assay: Inhibition of glutamate-induced apoptosis in mouse HT-22 cells assessed as increase in Bcl2 protein level at 1 to 10 uM incubated for 10 hrs in presence of glutamate by Western blot analysis; format: functional, cell-based; conditions: dose 1-10 µM
HT-22 [7] = assay: Inhibition of glutamate-induced oxidative stress in mouse HT-22 cells assessed as reduction in intracellular ROS accumulation at 0.2 to 1.8 uM in presence of glutamate by FACS analysis; format: functional, cell-based; conditions: dose 0.2-1.8 µM
HT-22 [8] = assay: Inhibition of glutamate-induced apoptosis in mouse HT-22 cells assessed as necrotic cells at 1.85 uM pretreated with glutamate for 2 hrs followed by incubation with compound for 8 hrs by Annexin-V FITC and propidium iodide staining based flow cytometric analysis (reference value: 0.79%); format: functional; parameters: scale not given: the % may be the effect or the level left
[9] = Antioxidant activity assessed as DPPH radical scavenging activity; format: functional
HT-22 [10] = assay: Neuroprotective activity against glutamate-induced cytotoxicity in mouse HT-22 cells assessed as increase in cell viability at 1.85 to 5.5 uM in presence of glutamate by calcein-AM dye/propidium iodide staining based microscopic analysis; format: functional; conditions: dose 1.85-5.5 µM
HT-22 [11] = assay: Inhibition of glutamate-induced apoptosis in mouse HT-22 cells assessed as late apoptotic cells at 0.2 uM pretreated with glutamate for 2 hrs followed by incubation with compound for 8 hrs by Annexin-V FITC and propidium iodide staining based flow cytometric analysis (reference value: 6.49%); format: functional; parameters: scale not given: the % may be the effect or the level left
HT-22 [12] = assay: Inhibition of glutamate-induced apoptosis in mouse HT-22 cells assessed as early apoptotic cells at 1.85 uM pretreated with glutamate for 2 hrs followed by incubation with compound for 8 hrs by Annexin-V FITC and propidium iodide staining based flow cytometric analysis (reference value: 71.33%); format: functional; parameters: scale not given: the % may be the effect or the level left
HT-22 [13] = assay: Neuroprotective activity against glutamate-induced cytotoxicity in mouse HT-22 cells assessed as increase in cell viability at 0.6 uM in presence of glutamate by calcein-AM dye/propidium iodide staining based microscopic analysis; format: functional
[14] = Inhibition of glutamate-induced Ca2+ influx in mouse HT-22 cells assessed as reduction in intracellular Ca2+ concentration at 0.6 to 1.8 uM in presence of glutamate by Fluo3-AM staining based fluorescence microscopic method relative to control; format: functional; conditions: dose 0.6-1.8 µM
HT-22 [15] = assay: Neuroprotective activity against glutamate-induced cytotoxicity in mouse HT-22 cells assessed as reduction in cell death pretreated with glutamate followed by incubation with compound for 8 hrs and measured at 16 hrs post-glutamate treatment; format: functional, cell-based
HT-22 [16] = assay: Inhibition of glutamate-induced apoptosis in mouse HT-22 cells assessed as early apoptotic cells at 0.2 uM pretreated with glutamate for 2 hrs followed by incubation with compound for 8 hrs by Annexin-V FITC and propidium iodide staining based flow cytometric analysis (reference value: 71.33%); format: functional; parameters: scale not given: the % may be the effect or the level left
HT-22 [17] = assay: Inhibition of glutamate-induced apoptosis in mouse HT-22 cells assessed as viable cells at 1.85 uM pretreated with glutamate for 2 hrs followed by incubation with compound for 8 hrs by Annexin-V FITC and propidium iodide staining based flow cytometric analysis (reference value: 21.39%); format: functional; conditions: read-out: Activity
HT-22 [18] = assay: Inhibition of glutamate-induced AIF nuclear translocation in mouse HT-22 cells assessed as decrease in translocation of AIF from mitochondria to nucleus in presence of glutamate by immunostaining analysis; format: functional, cell-based
HT-22 [19] = assay: Inhibition of glutamate-induced oxidative stress in mouse HT-22 cells assessed as reduction in intracellular ROS accumulation at 0.2 to 3.6 uM in presence of glutamate by DCF-DA staining based fluorescence microscopic analysis; format: functional, cell-based; conditions: dose 0.2-3.6 µM
HT-22 [20] = assay: Inhibition of glutamate-induced apoptosis in mouse HT-22 cells assessed as reduction in Bax protein level at 1 to 10 uM incubated for 10 hrs in presence of glutamate by Western blot analysis; format: functional, cell-based; conditions: dose 1-10 µM
HT-22 [21] = assay: Inhibition of glutamate-induced Ca2+ influx in mouse HT-22 cells assessed as reduction in intracellular Ca2+ concentration in presence of glutamate by Fluo3-AM staining based fluorescence microscopic method; format: functional, cell-based; conditions: dose 0.6-1.8 µM
HT-22 [22] = assay: Neuroprotective activity against glutamate-induced cytotoxicity in mouse HT-22 cells assessed as reduction in cell death and morphological changes at 0.6 to 1.8 uM incubated for 12 hrs in presence of glutamate by phase contrast microscopic analysis; format: functional, cell-based; conditions: dose 0.6-1.8 µM
HT-22 [23] = assay: Inhibition of glutamate-induced apoptosis in mouse HT-22 cells assessed as late apoptotic cells at 1.85 uM pretreated with glutamate for 2 hrs followed by incubation with compound for 8 hrs by Annexin-V FITC and propidium iodide staining based flow cytometric analysis (reference value: 6.49%); format: functional; parameters: scale not given: the % may be the effect or the level left
RGC-5 = assay: Cytoprotective activity against glutamate-induced cytotoxicity in rat RGC-5 cells assessed as reduction in cell death; format: functional, cell-based
[24] = biological target: MAP kinase p38 (Mus musculus) (UniProt P47811+O08911+Q9WUI1+Q9Z1B7); assay: Inhibition of glutamate-induced p38 MAPK activation in mouse HT-22 cells assessed as reduction in phosphorylated p38 MAPK protein level at 1 to 10 uM in presence of glutamate by Western blot analysis; format: cell-based; conditions: dose 1-10 µM
HT-22 [25] = assay: Inhibition of glutamate-induced AIF nuclear translocation in mouse HT-22 cells assessed as decrease in translocation of AIF from mitochondria to nucleus at 1 to 10 uM in presence of glutamate by Western blot analysis; format: functional, cell-based; conditions: dose 1-10 µM

CCCCCCCc1[nH]c2ccccc2c(=O)c1O
inhibition (HT-22 [1]): Active
viability at 0.2 µM (HT-22 [2]): 37.5%
inhibition [3]: Active
Activity (HT-22 [4]): 1.74%
Activity (HT-22 [5]): Active
inhibition (HT-22 [6]): Active
inhibition (HT-22 [7]): Active
Activity (HT-22 [8]): 0.44%
Activity [9]: Dose-Dependent Effect
Activity (HT-22 [10]): inactive
Activity (HT-22 [11]): 5.51%
Activity (HT-22 [12]): 0.44%
Activity (HT-22 [13]): Active
fold change (FC) [14]: 0.98
Activity (HT-22 [15]): inactive
Activity (HT-22 [16]): 55.26%
viability at 1.85 µM (HT-22 [17]): 98.1%
inhibition (HT-22 [18]): Active
inhibition (HT-22 [19]): Active
inhibition (HT-22 [20]): Active
inhibition (HT-22 [21]): Dose-Dependent Effect
Activity (HT-22 [22]): Active
Activity (HT-22 [23]): 1.06%
Activity (RGC-5): Active
inhibition [24]: Active
inhibition (HT-22 [25]): Active
